Results as given in patent US5591615A, “Mutant of Geotrichum candidum which produces novel enzyme system to selectively hydrolyze triglycerides” (priority 1995, dated 1997).
One block for each compound: values may come before it.

Tests used:
[1] = system: Geotrichum candidum mutant 9-2; experiment: UNLipase production by mutant in culture medium; format: cell-based
Description: It was determined early in our work that having fat or oil in the medium induced other lipases produced by Geotrichum strains. Thus fat or oil was eliminated from the medium. Then improvements for Bacto-Peptone were sought. A series of peptones or other organic nitrogen sources were tested including soy peptone, trypticase® (BBL) peptone, casamino acids, NZ amine® (Sheffield Products) and casein.
Next, the salt constituents were examined in the standard medium. […] The inclusion of these two salts in the medium gave a doubling of measured hydrolyric activity when assayed using the standard assay. […] Fifty mls of this medium are placed in 500 ml baffled flasks (Bellco) then shaken at 250 rpms at 25°-30° C.
The next goal was to find a mutant with enhanced productivity. Thus the mutagenesis of mutant 9-2 was undertaken as described above but the selection protocol was altered. In this case, after the 8° C. recovery period the mutant suspensions were placed in 50 ml sterile test tubes and frozen at -55° C. The period of freezing was then interrupted by thawing periods (about 4 hours) and followed by freezing at -55° C. Mutants were screened for lipase activity and selectivity. One mutant, 9-2-3-9, survived a cycle of 3 weeks of freezing which had been interrupted by 3 thaw cycles. The mutant 9-2-3-9 was distinctly different from its parent (9-2) in its colony morphology when grown on nutrient agar. The colony type was much more aerial than 9-2.
The mutant 9-2 was grown in the medium described above. Fifty mls were added to 500 ml baffled flasks (Bellco) and placed on a shaker maintained at 30° C. and shaken at 250 rpms. Production reaches a peak at about 30 hours, then declines slightly and remains low. The enzyme was harvested at 30 hours for a series of hydrolyric tests. The collection of the enzyme involves centrifugation of the broth at 5000 rpms in the Beckman GSA rotor for 10 minutes. The cell free broth was then decanted from the cell pellet. In some cases, high activity suspension were produced by a 70% ammonium sulfate precipitation of the broth.

[2] = system: UNLipase; experiment: Esterification of fatty acid mixture from pressure-split beef tallow (PFA); format: biochemical, Geotrichum candidum; details: HPLC or GC; pentadecanoic acid internal standard
Description: The esterification of fatty acid mixtures was evaluated using typical fatty acid mixtures derived from pressure-split beef tallow, henceforth referred to as PFA. Samples of PFA were spiked with pentadecanoic acid as an internal standard. The resulting products were analyses by either HPLC (reverse phase C-18 column) or GC (FFAP capillary column).

[3] = system: UNLipase; experiment: Fatty acid selectivity of lipase esterification; format: biochemical, Geotrichum candidum
Description: These preparations contained 50-200 mg of fatty acid, 0.5 ml concentrated broth, 0.5 ml water (buffer) and 100-300 ul of alcohol. Reactions were run at either 27, 30 or 37 degrees Celsius for 16 to 24 hours. The reaction was stopped by adding 2.0 ml ether.
Fatty acid and ester were extracted into ether and evaluated by thin layer chromatography. The esterification of oleic acid with various alcohols is present in Table 1.
The fatty acid selectivity of the lipase in esterification reactions was also evaluated in the manner described above, with results analyzed by thin layer chromatography, GC, HPLC and IR.

[4] = system: UNLipase; experiment: Effect of metal ions on UNLipase; format: biochemical, Geotrichum candidum; details: 25 mM concentration
[5] = system: UNLipase; experiment: Hydrolysis of simple (methyl) esters with UNLipase; format: biochemical, Geotrichum candidum; details: about 50 mM in isooctane, 37 degrees C, 4 hours
Description: Simple esters were subjected to UNLipase to determine the scope and extent of UNLipase selectivity. The esters evaluated were methyl esters of propionic, caprylic, nonanoic, caproic, palmitic and oleic acids. […] Approximately 2% of the methyl palmitate reacted, whereas 67% of the methyl oleate was hydrolyzed.

[6] = system: G. candidum lipase; details: cited from earlier work
[7] = system: UNLipase; experiment: Hydrolysis of pure triglycerides with UNLipase; format: biochemical, Geotrichum candidum; details: 1 hour at 37 degrees C; for ratio of hydrolysis for triolein:tripalmitolein:trilinolein: pure triglyceride in isooctane, relative to triolein 100
Description: The Enzyme was harvested using centrifugation at 5000 rpms, for example, in a Beckman GSA rotor for 10 minutes. This cell-free preparation was used to determine hydrolysis, esterification and transesterification properties.
Substrates were prepared in isooctane (2,2,4-trimethylpentane) at about 0.8 grams per 20 ml solvent. Assay procedures for determining lipase activity were those described by Kwon, D. Y. and Rhee, J. S., J. Amer. Oil Chem Soc. 63:89-92(1986). One modification was to perform some assays for one hour under nonagitated conditions to avoid difficulties in reproducing agitation rates.
Hydrolysis was greatest for triolein, with the ratio of hydrolysis for triolein: tripalmitolein:trilinolein of 100:65:82. […] The ratio of hydrolysis of triolein to tripalmitin was approximately 33:1.

[8] = added to culture medium of mutant 9-2

SMILES: OC[C@H]1O[C@H](O[C@H]2[C@H](O)[C@@H](O)C(O)O[C@@H]2CO)[C@H](O)[C@@H](O)[C@@H]1O (mixture of isomers) [maltose]
effect on UNLipase production [1, 8]: no effect

SMILES: O=P([O-])(O)O.[K+] [KH2 PO4]
effect on UNLipase production [1, 8]: benefit

ester formation in PFA mixture [2]: detected
SMILES: CCCCC/C=C\C/C=C\CCCCCCCC(=O)O [Linoleic]

SMILES: O=S(=O)([O-])[O-].[Mg+2] [MgSO4]
effect on UNLipase production ([1]; MgSO4 concentration increased to 0.5%): no further enhancement
effect on UNLipase production [1, 8]: benefit

ester formation in PFA mixture [2]: detected
SMILES: CCCCCCCC/C=C\CCCCCCCC(=O)O [Oleic, oleic acid]

ester formation in PFA mixture [2]: detected
SMILES: CCCCCC/C=C\CCCCCCCC(=O)O [Palmitoleic]

SMILES: CCCCCCCCCCCCCCCCCC(=O)O [Stearic]
ester formation in PFA mixture [2]: not esterified

SMILES: C=CCCCCCCCCC(=O)O [Undecenoic acid, 10-undecenoic acid]
effect on esterification of oleic acid [3]: inhibitor

SMILES: [Ca+2] [calcium ions]
effect on UNLipase production [1, 8]: did not enhance
effect on UNLipase [4]: inhibited

SMILES: O=C(CO)[C@@H](O)[C@H](O)[C@H](O)CO [fructose]
effect on UNLipase production [1, 8]: inhibited

SMILES: O=C[C@H](O)[C@@H](O)[C@H](O)[C@H](O)CO [glucose]
effect on UNLipase production [1, 8]: inhibited

SMILES: [Mg+2] [magnesium ions]
effect on UNLipase [4]: activated

SMILES: OC[C@@H](O)[C@@H](O)[C@H](O)[C@H](O)CO [mannitol]
effect on UNLipase production [1, 8]: no effect

hydrolysis by UNLipase [5]: not hydrolyzed
SMILES: CCCCCCCC(=O)OC [methyl ester of caprylic acid]

hydrolysis by UNLipase [5]: not hydrolyzed
SMILES: CCCCCCCCC(=O)OC [methyl ester of nonanoic acid]

SMILES: CCC(=O)OC [methyl ester of propionic acid]
hydrolysis by UNLipase [5]: not hydrolyzed

SMILES: CCCCCCCC/C=C\CCCCCCCC(=O)OC [methyl oleate]
hydrolytic rate relative to palmitic methyl ester [6]: 10 times
methyl ester hydrolyzed [5]: 67%

methyl ester hydrolyzed [5]: Approximately 2%
SMILES: CCCCCCCCCCCCCCCC(=O)OC [methyl palmitate]

SMILES: CCCCCCCCCCCCCC(=O)O [myristic]
ester formation in PFA mixture [2]: not esterified

ester formation in PFA mixture [2]: not esterified
SMILES: CCCCCCCCCCCCCCCC(=O)O [palmitic]

ester formation in PFA mixture [2]: not esterified
SMILES: CCCCCCCCCCCCCCC(=O)O [pentadecanoic acid]

SMILES: OC[C@H]1O[C@@](CO)(O[C@H]2O[C@H](CO)[C@@H](O)[C@H](O)[C@H]2O)[C@@H](O)[C@@H]1O [sucrose]
effect on UNLipase production [1, 8]: inhibited

ratio of hydrolysis for triolein:tripalmitolein:trilinolein [7]: 82
SMILES: CCCCC/C=C\C/C=C\CCCCCCCC(=O)OCC(COC(=O)CCCCCCC/C=C\C/C=C\CCCCC)OC(=O)CCCCCCC/C=C\C/C=C\CCCCC [trilinolein]

SMILES: CCCCCCCC/C=C\CCCCCCCC(=O)OCC(COC(=O)CCCCCCC/C=C\CCCCCCCC)OC(=O)CCCCCCC/C=C\CCCCCCCC [triolein]
ratio of hydrolysis for triolein:tripalmitolein:trilinolein [7]: 100

reactivity with UNLipase ([7]; saturated fatty acid triglycerides): showed any reactivity
SMILES: CCCCCCCCCCCCCCCC(=O)OCC(COC(=O)CCCCCCCCCCCCCCC)OC(=O)CCCCCCCCCCCCCCC [tripalmitin]

ratio of hydrolysis for triolein:tripalmitolein:trilinolein [7]: 65
SMILES: CCCCCC/C=C\CCCCCCCC(=O)OCC(COC(=O)CCCCCCC/C=C\CCCCCC)OC(=O)CCCCCCC/C=C\CCCCCC [tripalmitolein]
